Results as given in publication PMC6222829, “Synthesis, Molecular Docking and Anticancer Activity of Diflunisal Derivatives as Cyclooxygenase Enzyme Inhibitors” (Molecules : A Journal of Synthetic Chemistry and Natural …, 2018).
Entries after “also recorded” stand apart in the source; their conditions may differ.

Tests used:
PC-3 cell line [1] = experiment: MTS cytotoxicity assay, PC-3; format: cell-based, human; set-up: key to IC50 PC-3: PCV: Promoting cell viability; NSC: No significant change; details: for IC50 PC-3 / IC50: MTS assay, 72 h incubation; for IC50: Homo sapiens, PC-3
Description: (§1) In this project, the colorectal cancer cell line HCT116 (ATCC® CCL-247™), […] prostate cancer cell line PC-3 (ATCC® CRL-1435™), breast cancer cell lines T47D (ATCC® HTB-133™), MCF7 (ATCC® HTB-22™) and finally, epithelial embryonic kidney cell line HEK293 (ATCC® CRL-1573™) were used. All media were completed with %10 fetal bovine serum (FBS) and %1 penicillin streptomycin amphotericin (PSA). All cells were cultured periodically at 37 °C, 5% (v/v) CO2 and 95% (v/v) air in T-75 flasks. Different media were used for the different cell lines based on ATCC standards: MCF7 and HEK293 cell lines were cultured in DMEM High Mmedium (ATCC, 30-2003); T47D and PC-3 cell lines were cultured in RPM 1640 medium (ATCC, 30-2001); HCT116 cell line was cultured in DMEM F12 medium (ATCC, 30-2006). RPM 1640 medium was further completed with 0.2 unit/mL bovine insulin for the T47D cell line. Cells were passaged when they reached %80 confluency in order to support proliferation.
(§2) The effects of the synthesized compounds on the cell viability were tested. Stock solutions for each compound were prepared by measuring 20 mg of each compound and dissolving it in 1 mL DMSO to a final concentration of […], followed by filtration through a 0.2-μm filter (Sartorius AG, Gottingen, Germany). Then stock solutions were diluted as 1/10, 1/100 and 1/1000 in the designated media and applied on the cell lines. In order to determine the effect of DMSO itself, the same dilutions were performed by using DMSO, only and applied on the cell lines. Cell densities used for each cell line in 96 well plate were as follows: for PC-3, HCT116 and HEK293 cell lines 5000 cells/well; for T47D cell lines 20,000 cells/well. Cell viability was measured by the MTS cytotoxicity assay (CellTiter96 AqueousOne Solution; Promega, Southampton, UK) according to the manufacturer’s instructions. 3-(4,5-Dimethylthiazol-2-yl)-5-(3-carboxymethoxyphenyl)-2-(4-sulfo-phenyl)-2H-tetrazolium (MTS) is a yellow tetrazolium salt which is catabolized to formazan by dehydrogenase enzyme in the mitochondria of the living cells. Formazan is a purple compound and the detection in this assay is based on the measurement of formazan compounds by an ELISA plate reader. After incubating the cells for 72 h, 10 µL MTS reagent and 100 µL designated medium was given to the cells followed by 2 h of incubation at 37 °C. Thereafter, the absorbance at 490 nm was measured by an ELISA plate reader. (BioTek Instruments, Inc., Winooski, VT, USA). The activity doses of the compounds were determined according to 50% cell death rate when compared to DMSO, only after 72 h of incubation. […] IC50 values are calculated by the GraphPad prism software.

T47D cell line [2] = experiment: MTS cytotoxicity assay, T47D; format: cell-based, human; set-up: key to IC50 T47D: PCV: Promoting cell viability; NSC: No significant change; details: for IC50 T47D / IC50: MTS assay, 72 h incubation; for IC50: Homo sapiens, T47D
Description: as §1, §2

HEK293 cell line [3] = experiment: MTS cytotoxicity assay, HEK293; format: cell-based, human; details: normal cell line; for IC50: Homo sapiens, HEK293, MTS assay, 72 h incubation
Description: as §1, §2

HEK293 cell line [4] = experiment: Annexin V/PI apoptosis assay, HEK293; format: cell-based; details: FITC-Annexin V/PI flow cytometry
Description: (§3) Evaluation of the effect of the synthesized compounds on apoptosis was determined by the FITCH-AnnexinV/PI protocol. Damaged cell membrane of necrotic cell enables propidium iodide (PI) to bind DNA and induces a red fluorescence, although it is excluded by non-damaged cells, select live and apoptotic cells. FITCH-Annexin V has the ability to bind to phosphatidylserine which is a specific marker of apoptosis. […] The lower left panel of the quadrant of the cytograms indicates live cells due to exclusion of PI and non-bound Annexin V.
(§4) The upper left panel of the cytogram represents necrotic cells which are positive for PI. Each cytogram of each cell was analyzed and a histogram graph was drawn for further visual information.
Determination of IC50 values was followed by the investigation of effect of the synthesized compounds on apoptosis. Cells were seeded into six well plates at densities of 15,000 cells/well (PC-3, HCT116 and HEK293 cell lines) and 60,000 cells/well (T47D cell lines). After the treatment cells were harvested and washed with ice cold PBS. 1 × Annexin-binding buffer was prepared while the cells were being washed. Working solution of PI (100 µg/mL) was prepared as well by diluting 5 µL of the 1 mg/mL PI stock solution in 45 µL 1 × Annexin-binding buffer. After the precipitation of the cells, they were resuspended in 500 µL 1 × Annexin-binding buffer. Resuspended cells were separated into four groups (Annexin V, PI, Annexin V + PI and NC) each containing 100 µL of suspension. Five µL of the Annexin V conjugate was added to the proper groups. Samples were incubated for 15 min at room temperature. The incubation step was followed by adding 2 µL of the 100 µg/mL PI working solution to the proper groups then the fluorescence was observed by flow cytometry.

PC-3 cell line [5] = experiment: Annexin V/PI apoptosis assay, PC-3; format: cell-based, human; details: FITC-Annexin V/PI flow cytometry
Description: as §3, §4
(§5) Determination of IC50 values was followed by the investigation of effect of the synthesized compounds on apoptosis. Cells were seeded into six well plates at densities of 15,000 cells/well (PC-3, HCT116 and HEK293 cell lines) and 60,000 cells/well (T47D cell lines). After the treatment cells were harvested and washed with ice cold PBS. 1 × Annexin-binding buffer was prepared while the cells were being washed. […] The incubation step was followed by adding 2 µL of the 100 µg/mL PI working solution to the proper groups then the fluorescence was observed by flow cytometry.

HCT116 cell line [6] = experiment: MTS cytotoxicity assay, HCT116; format: cell-based, human; details: for IC50: Homo sapiens, HCT-116, MTS assay, 72 h incubation
Description: as §1, §2

MCF7 cell line = experiment: MTS cytotoxicity assay, MCF7; format: cell-based; details: Homo sapiens, 72 h incubation
Description: as §1, §2

T47D cell line [7] = experiment: Annexin V/PI apoptosis assay, T47D; format: cell-based, human; details: FITC-Annexin V/PI flow cytometry
Description: as §3, §4, §5

HCT116 cell line [8] = experiment: Annexin V/PI apoptosis assay, HCT116; format: cell-based, human; details: FITC-Annexin V/PI flow cytometry
Description: as §3, §4, §5

Compound	IC50 (HEK293 cell line [3]) [µM]	IC50 (PC-3 cell line [1]) [µM]	IC50 (T47D cell line [2]) [µM]	cytotoxic effect on HEK293 (in words) (HEK293 cell line [3])	apoptosis / necrosis, HEK293 (HEK293 cell line [4])	IC50 (MCF7 cell line) [µM]	other results
O=C(NNC(=S)Nc1cccc(F)c1)c1cc(-c2ccc(F)cc2F)ccc1O [Compound 4]	617						IC50 PC-3 (PC-3 cell line [1]): PCV; IC50 T47D (T47D cell line [2]): PCV
O=C(NNC(=S)Nc1cccc(Cl)c1)c1cc(-c2ccc(F)cc2F)ccc1O [Compound 5]	44.4						
O=C(NNC(=S)Nc1cccc(Br)c1)c1cc(-c2ccc(F)cc2F)ccc1O [Compound 6, N-(3-Bromophenyl)-2-[(2′,4′-difluoro-4-hydroxybiphenyl-3-yl)carbonyl]hydrazine carbothioamide]	93 ± 3.43	41.8 ± 3.4	100 ± 2.3	did not show cytotoxic effects	did not result in apoptosis		anticancer activity against PC-3 (in words) (PC-3 cell line [1]): displayed anti-tumourigenic activity; apoptosis / necrosis, PC-3 (PC-3 cell line [5]): increase of late apoptosis markers; also recorded: undergo apoptosis highly
O=C(NNC(=S)Nc1ccc(Br)cc1)c1cc(-c2ccc(F)cc2F)ccc1O [Compound 7, N-(4-Bromophenyl)-2-[(2′,4′-difluoro-4-hydroxybiphenyl-3-yl)carbonyl]hydrazine carbothioamide]	3.17 ± 1.06	11.7 ± 4.2	16.7 ± 2.8				
O=C(NC(=S)NNC(=O)c1cc(-c2ccc(F)cc2F)ccc1O)c1ccccc1 [Compound 8, N-({2-[(2′,4′-Difluoro-4-hydroxybiphenyl-3-yl)carbonyl]hydrazinyl}carbonothioyl)benzamide]	5.04 ± 1.5	2.85 ± 3.6	8.07 ± 2				IC50 (HCT116 cell line [6]): 3.68 ± 2.1 µM
COc1ccccc1NC(=S)NNC(=O)c1cc(-c2ccc(F)cc2F)ccc1O [Compound 9, 2-[(2′,4′-Difluoro-4-hydroxybiphenyl-3-yl)carbonyl]-N-(2-methoxyphenyl)hydrazine carbothioamide]	3.02 ± 1.9	1.57 ± 1.4	3.86 ± 0.7			3.92 ± 0.27	IC50 (HCT116 cell line [6]): 1.83 ± 0.92 µM
CCc1ccc(NC(=S)NNC(=O)c2cc(-c3ccc(F)cc3F)ccc2O)cc1 [Compound 10, 2-[(2′,4′-Difluoro-4-hydroxybiphenyl-3-yl)carbonyl]-N-(4-ethylphenyl)hydrazine carbothioamide]	94 ± 3.74	11.7 ± 2.6		did not show cytotoxic effects	slight insignificant increase in necrosis; also recorded: did not result in apoptosis		anticancer activity against PC-3 (in words) (PC-3 cell line [1]): displayed anti-tumourigenic activity; IC50 T47D (T47D cell line [2]): NSC; apoptosis / necrosis, PC-3 (PC-3 cell line [5]): increase of late apoptosis markers; also recorded: undergo apoptosis highly
CCCn1c(-c2cc(-c3ccc(F)cc3F)ccc2O)n[nH]c1=S [Compound 11, 5-(2′,4′-Difluoro-4-hydroxybiphenyl-3-yl)-4-propyl-2,4-dihydro-3H-1,2,4-triazole-3-thione]	11.5 ± 0.2	174 ± 6.3	10.1 ± 1.57			22.2 ± 2.3	
Oc1ccc(-c2ccc(F)cc2F)cc1-c1n[nH]c(=S)n1-c1cccc(F)c1 [Compound 12, 5-(2′,4′-Difluoro-4-hydroxybiphenyl-3-yl)-4-(3-fluorophenyl)-2,4-dihydro-3H-1,2,4-triazole-3-thione]	10.7 ± 0.96	34 ± 2.1	9.24 ± 1.01			15 ± 1.3	
Oc1ccc(-c2ccc(F)cc2F)cc1-c1n[nH]c(=S)n1-c1cccc(Cl)c1 [Compound 13, 4-(3-Chlorophenyl)-5-(2′,4′-difluoro-4-hydroxybiphenyl-3-yl)-2,4-dihydro-3H-1,2,4-triazole-3-thione]	8.7 ± 1.79	34.1 ± 3.7	5.55 ± 2.7			12.9 ± 2.1	
Oc1ccc(-c2ccc(F)cc2F)cc1-c1n[nH]c(=S)n1-c1cccc(Br)c1 [Compound 14, 4-(3-Bromophenyl)-5-(2′,4′-difluoro-4-hydroxybiphenyl-3-yl)-2,4-dihydro-3H-1,2,4-triazole-3-thione]			11.5 ± 1.8				IC50 PC-3 (PC-3 cell line [1]): PCV
Oc1ccc(-c2ccc(F)cc2F)cc1-c1n[nH]c(=S)n1-c1ccc(Br)cc1 [Compound 15, 4-(4-Bromophenyl)-5-(2′,4′-difluoro-4-hydroxybiphenyl-3-yl)-2,4-dihydro-3H-1,2,4-triazole-3-thione]	145 ± 2.3	145 ± 2.8	43.4 ± 2.72	did not show cytotoxic effects	did not result in apoptosis		anticancer activity against PC-3 (in words) (PC-3 cell line [1]): did not show any activity; anticancer activity against HCT-116 (in words) (HCT116 cell line [6]): did not show any activity; anticancer activity against T47D (in words) (T47D cell line [2]): demonstrated anticancer activity; apoptosis / necrosis, T47D (T47D cell line [7]): vast late apoptosis; also recorded: largely through late apoptosis
COc1ccccc1-n1c(-c2cc(-c3ccc(F)cc3F)ccc2O)n[nH]c1=S [Compound 16, 5-(2′,4′-Difluoro-4-hydroxybiphenyl-3-yl)-4-(2-methoxyphenyl)-2,4-dihydro-3H-1,2,4-triazole-3-thione]	53 ± 2.39	169 ± 3.9	27.3 ± 2.28	did not show cytotoxic effects	did not result in apoptosis		anticancer activity against HCT-116 (in words) (HCT116 cell line [6]): displayed activity; IC50 (HCT116 cell line [6]): 6.2 ± 3.1 µM; anticancer activity against T47D (in words) (T47D cell line [2]): demonstrated anticancer activity; apoptosis / necrosis, HCT116 (HCT116 cell line [8]): extensive apoptotic effect; apoptosis / necrosis, T47D (T47D cell line [7]): resulted in necrosis
